Drawing on US8541407B2 (ArQule, Inc., priority 2010, dated 2013), this text covers IC50 for 38 compounds.

Structures are written as SMILES. Structures can show the parent of a compound that is named as a salt.

AKT1, sequence (P31749 whole entry): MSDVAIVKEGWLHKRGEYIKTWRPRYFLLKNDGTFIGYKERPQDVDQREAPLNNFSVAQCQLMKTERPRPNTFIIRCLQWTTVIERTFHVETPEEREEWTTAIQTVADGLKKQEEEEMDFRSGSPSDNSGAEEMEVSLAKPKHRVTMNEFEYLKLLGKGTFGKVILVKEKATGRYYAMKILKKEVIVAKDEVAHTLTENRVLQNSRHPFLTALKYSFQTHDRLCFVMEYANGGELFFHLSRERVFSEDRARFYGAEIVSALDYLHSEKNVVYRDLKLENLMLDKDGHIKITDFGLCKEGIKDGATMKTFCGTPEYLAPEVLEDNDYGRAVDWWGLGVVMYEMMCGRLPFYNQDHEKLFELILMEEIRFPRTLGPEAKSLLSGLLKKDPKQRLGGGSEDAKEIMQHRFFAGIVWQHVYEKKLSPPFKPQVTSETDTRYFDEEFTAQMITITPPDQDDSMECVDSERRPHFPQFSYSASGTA

This assay has as its target AKT1 (Homo sapiens (Human), UniProt P31749). Briefly: Inactive Akt Alpha Screen Assay. The note with it: non *labeled: Akt Alpha Screen assay; read-out: AKT1 biochemical assay, IC50. As to the method: AKT1 activity was assayed using the GSK3-derived biotinylated peptide substrate, crosstide (biotin-[…]), and AlphaScreen™ (Amplified Luminescent Proximity Homogeneous Assay) technology. AKT1 activation was achieved by the addition of the activating kinases PDK1 and MAPKAPK2, lipid vesicles, and ATP. The extent of peptide phosphorylation was determined using a phospho-AKT substrate antibody and acceptor beads conjugated to Protein A and donor beads conjugated to streptavidin that bind to the biotin on the peptide. Excitation of the donor beads converted ambient oxygen to excited singlet oxygen which, when in close proximity to acceptor beads, reacted with acceptor beads resulting in signal amplification. […] The plates were incubated for 30 minutes at room temperature, and then stopped in the dark by the addition of 10 μL stop/detection mixture prepared in assay buffer containing EDTA, AlphaScreen™ Streptavidin Donor and Protein A Acceptor beads, and phospho-AKT substrate antibody for final concentrations of 10 mM EDTA, 500 ng/well of both AlphaScreen™ Streptavidin Donor beads and Protein A Acceptor beads, and phospho-AKT substrate antibody at a final dilution of 1:350. Assay plates were incubated for 90 minutes at room temperature in the dark, and the plates were read on a Perkin Elmer Envision Multilabel plate reader (excitation wavelength: […], emission wavelength: 570 nm). […] Envision Instrument Settings: • Instrument: Perkin Elmer Envision • Plate: 96 well • Program Name: • Excitation: Ex Top • Mirror: General Dual—Slot 2 • Excitation Filter: CFP430 Ex.
As a reminder, the IC50 is the concentration that inhibits the measured activity by half. `c1ccc(-c2nnc3n2-c2cccnc2Nc2ccccc2-3)cc1` [Example 1, 3-phenyl-9H-benzo[f]pyrido[2,3-b][1,2,4]triazolo[4,3-d][1,4]diazepine]: the IC50 worked out at 2800 nM. As for `c1coc(-c2nnc3n2-c2cccnc2Nc2ccccc2-3)c1` [Example 2], the figure is 6300 nM. The result for `Nc1cc(-c2nnc3n2-c2cccnc2Nc2ccccc2-3)ccn1` [Example 3, 4-(9H-benzo[f]pyrido[2,3-b][1,2,4]triazolo[4,3-d][1,4]diazepin-3-yl)pyridin-2-amine] reads 13000 nM; that for `c1c[nH]c(-c2nnc3n2-c2cccnc2Nc2ccccc2-3)c1` [Example 4, 3-(1H-pyrrol-2-yl)-9H-benzo[f]pyrido[2,3-b][1,2,4]triazolo[4,3-d][1,4]diazepine], 7900 nM. The result for `Nc1ccc(-c2nnc3n2-c2cccnc2Nc2ccccc2-3)cn1` [Example 5, hydrochloride] reads 2100 nM; that for `Cc1ccc(-c2nnc3n2-c2cccnc2Nc2ccccc2-3)cc1` [Example 6, hydrochloride], 13000 nM; that for `CC(C)(C)c1ccc(-c2nnc3n2-c2cccnc2Nc2ccccc2-3)cc1` [Example 7, 3-(4-(tert-butyl)phenyl)-9H-benzo[f]pyrido[2,3-b][1,2,4]triazolo[4,3-d][1,4]diazepine], 4700 nM. Consider `FC(F)(F)c1ccc(-c2nnc3n2-c2cccnc2Nc2ccccc2-3)cc1` [Example 8, 3-(4-(trifluoromethyl)phenyl)-9H-benzo[f]pyrido[2,3-b][1,2,4]triazolo[4,3-d][1,4]diazepine], for which the IC50 is 30000 nM. The result for `Clc1ccc(-c2nnc3n2-c2cccnc2Nc2ccccc2-3)cc1` [Example 9, hydrochloride] reads 5100 nM.

For the compound `Nc1ccc(-c2nnc3n2-c2cccnc2Nc2ccccc2-3)cc1` [Example 11, hydrochloride], the 50% inhibitory concentration (IC50) stood at 730 nM.

Regarding `Clc1ccc(-c2nnc3n2-c2cccnc2Nc2ccccc2-3)cc1Cl` [Example 13, hydrochloride], the IC50 came to 5100 nM. The result for `CN1c2ccccc2-c2nnc(-c3ccc4ccccc4c3)n2-c2ccccc21` [Example 14, hydrochloride] reads 67000 nM; that for `Fc1cccc(F)c1-c1nnc2n1-c1cccnc1Nc1ccccc1-2` [Example 16], 28000 nM; that for `Fc1ccc(-c2nnc3n2-c2cccnc2Nc2ccccc2-3)c(F)c1` [Example 17], 7200 nM. As for `Nc1cccc(-c2nnc3n2-c2cccnc2Nc2ccccc2-3)c1` [Example 18, hydrochloride], the figure is 8100 nM.

With `Oc1ccc(-c2nnc3n2-c2cccnc2Nc2ccccc2-3)cc1` [Example 19, 4-(9H-benzo[f]pyrido[2,3-b][1,2,4]triazolo[4,3-d][1,4]diazepin-3-yl)phenol], the 50% inhibitory concentration (IC50) is 2200 nM. As for `c1ccc(-c2nnc3n2-c2ccccc2Nc2ccccc2-3)cc1` [Example 20, 3-phenyl-9H-dibenzo[b,f][1,2,4]triazolo[4,3-d][1,4]diazepine], the figure is 1900 nM; as for `CN(C)c1ccc(-c2nnc3n2-c2ccccc2Nc2ccccc2-3)cc1` [Example 21, 4-(9H-dibenzo[b,f][1,2,4]triazolo[4,3-d][1,4]diazepin-3-yl)-N,N-dimethylaniline], 3500 nM; as for `Nc1ccc(-c2nnc3n2-c2ccccc2Nc2ccccc2-3)cc1` [Example 22, 4-(9H-dibenzo[b,f][1,2,4]triazolo[4,3-d][1,4]diazepin-3-yl)aniline], 1800 nM.

`OCc1ccc(-c2nnc3n2-c2cccnc2Nc2ccccc2-3)cc1` [Example 23, (4-(9H-benzo[f]pyrido[2,3-b][1,2,4]triazolo[4,3-d][1,4]diazepin-3-yl)phenyl)methanol]: the half-inhibitory concentration (IC50) is 1000 nM. Consider `O=c1[nH]c2ccccc2n1C1CCN(Cc2ccc(-c3nnc4n3-c3cccnc3Nc3ccccc3-4)cc2)CC1` [Example 24, 1-(1-(4-(9H-benzo[f]pyrido[2,3-b][1,2,4]triazolo[4,3-d][1,4]diazepin-3-yl)benzyl)piperidin-4-yl)-1H-benzo[d]imidazol-2(3H)-one], for which the IC50 is 83 nM. The result for `COC(=O)c1ccc(-c2nnc3n2-c2cccnc2Nc2ccccc2-3)cc1` [Example 25, methyl 4-(9H-benzo[f]pyrido[2,3-b][1,2,4]triazolo[4,3-d][1,4]diazepin-3-yl)benzoate] reads 2600 nM. The result for `O=C(c1ccc(-c2nnc3n2-c2cccnc2Nc2ccccc2-3)cc1)N1CCC(n2c(=O)[nH]c3ccccc32)CC1` [Example 26, 1-(1-(4-(9H-benzo[f]pyrido[2,3-b][1,2,4]triazolo[4,3-d][1,4]diazepin-3-yl)benzoyl)piperidin-4-yl)-1H-benzo[d]imidazol-2(3H)-one] reads 800 nM; that for `O=C(Nc1ccc(-c2nnc3n2-c2cccnc2Nc2ccccc2-3)cc1)c1ccc2ccccc2c1` [Example 28, N-(4-(9H-benzo[f]pyrido[2,3-b][1,2,4]triazolo[4,3-d][1,4]diazepin-3-yl)phenyl)-2-naphthamide], 680 nM; that for `O=C(Nc1ccc(-c2nnc3n2-c2cccnc2Nc2ccccc2-3)cc1)c1cc(C(F)(F)F)cc(C(F)(F)F)c1` [Example 29, N-(4-(9H-benzo[f]pyrido[2,3-b][1,2,4]triazolo[4,3-d][1,4]diazepin-3-yl)phenyl)-3,5-bis(trifluoromethyl)benzamide], 2500 nM. The result for `COc1ccc(C(=O)Nc2ccc(-c3nnc4n3-c3cccnc3Nc3ccccc3-4)cc2)cc1` [Example 31, N-(4-(9H-benzo[f]pyrido[2,3-b][1,2,4]triazolo[4,3-d][1,4]diazepin-3-yl)phenyl)-4-methoxybenzamide] reads 160 nM; that for `CCCC(=O)Nc1ccc(-c2nnc3n2-c2cccnc2Nc2ccccc2-3)cc1` [Example 32, N-(4-(9H-benzo[f]pyrido[2,3-b][1,2,4]triazolo[4,3-d][1,4]diazepin-3-yl)phenyl)butyramide], 730 nM. On to `CC(C)CC(=O)Nc1ccc(-c2nnc3n2-c2cccnc2Nc2ccccc2-3)cc1` [Example 33, N-(4-(9H-benzo[f]pyrido[2,3-b][1,2,4]triazolo[4,3-d][1,4]diazepin-3-yl)phenyl)-3-methylbutanamide], for which the half-maximal inhibitory concentration (IC50) was determined as 700 nM.

As to `O=C(Nc1ccc(-c2nnc3n2-c2cccnc2Nc2ccccc2-3)cc1)c1cccc2ccccc12` [Example 34, N-(4-(9H-benzo[f]pyrido[2,3-b][1,2,4]triazolo[4,3-d][1,4]diazepin-3-yl)phenyl)-1-naphthamide], the IC50 is 640 nM.

As for `O=C(Cc1cccc2ccccc12)Nc1ccc(-c2nnc3n2-c2cccnc2Nc2ccccc2-3)cc1` [Example 35, N-(4-(9H-benzo[f]pyrido[2,3-b][1,2,4]triazolo[4,3-d][1,4]diazepin-3-yl)phenyl)-2-(naphthalen-1-yl)acetamide], the concentration for half-maximal inhibition (IC50) amounted to 950 nM. As for `CC(C)(C)CC(=O)Nc1ccc(-c2nnc3n2-c2cccnc2Nc2ccccc2-3)cc1` [Example 36, N-(4-(9H-benzo[f]pyrido[2,3-b][1,2,4]triazolo[4,3-d][1,4]diazepin-3-yl)phenyl)-3,3-dimethylbutanamide], the figure is 340 nM; as for `O=C(Nc1ccc(-c2nnc3n2-c2cccnc2Nc2ccccc2-3)cc1)c1ccc(F)c(F)c1` [Example 37, N-(4-(9H-benzo[f]pyrido[2,3-b][1,2,4]triazolo[4,3-d][1,4]diazepin-3-yl)phenyl)-3,4-difluorobenzamide], 150 nM.

In the case of `N#Cc1ccc(C(=O)Nc2ccc(-c3nnc4n3-c3cccnc3Nc3ccccc3-4)cc2)cc1` [Example 38, N-(4-(9H-benzo[f]pyrido[2,3-b][1,2,4]triazolo[4,3-d][1,4]diazepin-3-yl)phenyl)-4-cyanobenzamide], the IC50 was 140 nM. The result for `CCC(=O)Nc1ccc(-c2nnc3n2-c2cccnc2Nc2ccccc2-3)cc1` [Example 39, N-(4-(9H-benzo[f]pyrido[2,3-b][1,2,4]triazolo[4,3-d][1,4]diazepin-3-yl)phenyl)propionamide] reads 1800 nM. As for `O=C(Nc1ccc(-c2nnc3n2-c2cccnc2Nc2ccccc2-3)cc1)c1cccnc1` [Example 40, N-(4-(9H-benzo[f]pyrido[2,3-b][1,2,4]triazolo[4,3-d][1,4]diazepin-3-yl)phenyl)nicotinamide], the figure is 260 nM; as for `COc1ccccc1C(=O)Nc1ccc(-c2nnc3n2-c2cccnc2Nc2ccccc2-3)cc1` [Example 41, N-(4-(9H-benzo[f]pyrido[2,3-b][1,2,4]triazolo[4,3-d][1,4]diazepin-3-yl)phenyl)-2-methoxybenzamide], 520 nM.

With `O=C(Nc1ccc(-c2nnc3n2-c2cccnc2Nc2ccccc2-3)cc1)c1cc2ccccc2s1` [Example 42, N-(4-(9H-benzo[f]pyrido[2,3-b][1,2,4]triazolo[4,3-d][1,4]diazepin-3-yl)phenyl)benzo[b]thiophene-2-carboxamide], the concentration for half-maximal inhibition (IC50) came out at 360 nM. As for `CC(C)(C)C(=O)Nc1ccc(-c2nnc3n2-c2cccnc2Nc2ccccc2-3)cc1` [Example 43, N-(4-(9H-benzo[f]pyrido[2,3-b][1,2,4]triazolo[4,3-d][1,4]diazepin-3-yl)phenyl)pivalamide], the figure is 420 nM.
